Here are results for eight compounds from US10004701B2, “Methods and compositions for treating infection” (UNIVERSITY OF ROCHESTER, priority 2012, dated 2018).

Holding throughout (assay): AK assay 384-well format, Prestwick library screening
One assay has as its system P. aeruginosa. In kind it is cell-based, Pseudomonas aeruginosa. The following applies: for fold induction at 50 µM: Pseudomonas aeruginosa, 3 h.
For assay [1], the system named is S. aureus strain USA300-0114. The class given is cell-based, Staphylococcus aureus. The settings on record: for fold induction at 50 µM: Staphylococcus aureus, USA300, 3 h.
The next assay deals with E. coli. The class given is cell-based, Escherichia coli. The settings on record: for fold induction at 50 µM: Escherichia coli, 3 h.
The subject of the next assay is E. cloacae. In kind it is cell-based, Enterobacter cloacae. The settings on record: for fold induction at 50 µM: Enterobacter cloacae, 3 h.
The test system of the next assay is E. faecium. The class given is cell-based, Enterococcus faecium. The settings on record: for fold induction at 50 µM: Enterococcus faecium, 3 h.
The test system of assay [2] is A. baumannii strain 98-37-09. The class given is cell-based, Acinetobacter baumannii. The following applies: for fold induction at 50 µM: Acinetobacter baumannii, 983709, 3 h.
A further assay relates to K. pneumoniae. In kind it is cell-based, Klebsiella pneumoniae. The following applies: for fold induction at 50 µM: Klebsiella pneumoniae, 3 h.
[3] abbreviates: 50 μM final drug concentration, planktonic, cutoff for positive-scoring molecules 3-fold increase, read-out: AK-based Prestwick Library Screening Results, P. aeruginosa (fold increase in extracellular AK activity).
Where [4] appears, read: 50 μM final drug concentration, planktonic, cutoff for positive-scoring molecules 3-fold increase, read-out: AK-based Prestwick Library Screening Results, S. aureus (fold increase in extracellular AK activity).
Where [5] appears, read: 50 μM final drug concentration, planktonic, cutoff for positive-scoring molecules 3-fold increase, read-out: AK-based Prestwick Library Screening Results, E. coli (fold increase in extracellular AK activity).
[6] abbreviates: 50 μM final drug concentration, planktonic, cutoff for positive-scoring molecules 3-fold increase, read-out: AK-based Prestwick Library Screening Results, E. cloacae (fold increase in extracellular AK activity).
Where [7] appears, read: 50 μM final drug concentration, planktonic, cutoff for positive-scoring molecules 3-fold increase, read-out: AK-based Prestwick Library Screening Results, E. faecium (fold increase in extracellular AK activity).
Setting [8] is: 50 μM final drug concentration, planktonic, cutoff for positive-scoring molecules 3-fold increase, read-out: AK-based Prestwick Library Screening Results, A. baumannii (fold increase in extracellular AK activity).
Where [9] appears, read: 50 μM final drug concentration, planktonic, cutoff for positive-scoring molecules 3-fold increase, read-out: AK-based Prestwick Library Screening Results, K. pneumoniae (fold increase in extracellular AK activity).

SMILES strings stand for the structures. Where a name gives a salt, the structure may show the parent alone. Read-outs that look alike come from different tables or passages of the source. Where a SMILES comes first, the peptide text is derived from it. [ ]: non-standard residue; d: D form. The star is where a group is joined. Sta = CC(C)C[C@H](N)[C@@H](O)CC(=O)O; Isovaleryl = CC(C)CC(=O)*

For `COc1cc([C@@H]2c3cc4c(cc3[C@@H](O[C@@H]3O[C@@H]5CO[C@@H](C)O[C@H]5[C@H](O)[C@H]3O)[C@H]3COC(=O)[C@H]23)OCO4)cc(OC)c1O` [Etoposide], the fold induction at 50 µM was determined as 1 in the assay on P. aeruginosa (50 μM final drug concentration, planktonic, cutoff for positive 3-fold increase, read-out: AK-based Prestwick Library Screening Results, P. aeruginosa (fold increase in extracellular AK activity)); 1.4 in assay [1] (50 μM final drug concentration, planktonic, cutoff for positive 3-fold increase, read-out: AK-based Prestwick Library Screening Results, S. aureus (fold increase in extracellular AK activity)); 1.2 with E. coli (50 μM final drug concentration, planktonic, […], read-out: AK-based Prestwick Library Screening Results, E. coli (fold increase in extracellular AK activity)); 1.4 with E. cloacae (50 μM final drug concentration, planktonic, cutoff for positive 3-fold increase, read-out: AK-based Prestwick Library Screening Results, E. cloacae (fold increase in extracellular AK activity)); 1.1 in the assay on E. faecium (50 μM final drug concentration, planktonic, cutoff for positive 3-fold increase, read-out: AK-based Prestwick Library Screening Results, E. faecium (fold increase in extracellular AK activity)); 1.2 in assay [2] (50 μM final drug concentration, planktonic, cutoff for positive 3-fold increase, read-out: AK-based Prestwick Library Screening Results, A. baumannii (fold increase in extracellular AK activity)). For the same compound, in the assay on K. pneumoniae (50 μM final drug concentration, planktonic, cutoff for positive 3-fold increase, read-out: AK-based Prestwick Library Screening Results, K. pneumoniae (fold increase in extracellular AK activity)), the fold induction at 50 µM worked out at 1.
In the case of `CC(C)CC(=O)N[C@H](C(=O)N[C@H](C(=O)N[C@@H](CC(C)C)[C@@H](O)CC(=O)N[C@@H](C)C(=O)N[C@@H](CC(C)C)[C@@H](O)CC(=O)O)C(C)C)C(C)C` [Pepstatin A] (Isovaleryl-VV[Sta]A[Sta]-OH), in the assay on P. aeruginosa (planktonic P. aeruginosa, 50 μM final drug concentration, 384-well, […]), the “AK-based Prestwick Library Screening Results: P. aeruginosa (increase in extracellular AK activity)” value was 0.4. In addition, in assay [1] (planktonic S. aureus, 50 μM final drug concentration, 384-well, […]), the “AK-based Prestwick Library Screening Results: S. aureus (increase in extracellular AK activity)” value is reported as 0.4. Moreover, the “AK-based Prestwick Library Screening Results: E. coli (increase in extracellular AK activity)” value with E. coli (planktonic E. coli, 50 μM final drug concentration, 384-well, […]) is reported as 0.5. Besides, the “AK-based Prestwick Library Screening Results: E. cloacae (increase in extracellular AK activity)” value with E. cloacae (planktonic E. cloacae, 50 μM final drug concentration, 384-well, […]) is listed as 0.4. Moreover, the “AK-based Prestwick Library Screening Results: E. faecium (increase in extracellular AK activity)” value in the assay with E. faecium (planktonic E. faecium, 50 μM final drug concentration, 384-well, […]) was 0.8. The “AK-based Prestwick Library Screening Results: A. baumannii (increase in extracellular AK activity)” value in assay [2] (planktonic A. baumannii, 50 μM final drug concentration, 384-well, […]) was determined as 0.4. Further, the “AK-based Prestwick Library Screening Results: K. pneumoniae (increase in extracellular AK activity)” value with K. pneumoniae (planktonic K. pneumoniae, 50 μM final drug concentration, 384-well, […]) was determined as 0.5.
Turning to `CC[C@@]1([C@@H]2O[C@@H]([C@H]3O[C@@](O)(CO)[C@H](C)C[C@@H]3C)C[C@@H]2C)CC[C@H]([C@]2(C)CC[C@]3(C[C@H](O)[C@@H](C)[C@@H]([C@@H](C)[C@@H](OC)[C@H](C)C(=O)O)O3)O2)O1` [Monensin sodium salt], the fold induction at 50 µM in the assay with P. aeruginosa (setting [3]) is 0.9; in assay [1] (setting [4]) it was 0.7; in the assay on E. coli (setting [5]) it was 0.9; in the assay on E. cloacae (setting [6]) it was 1.1; with E. faecium (setting [7]), 1.1; in assay [2] (setting [8]), 0.7. Moreover, in the assay on K. pneumoniae (setting [9]), the fold induction at 50 µM was found to be 0.6.
Turning to `COc1cc2c(c(OC)c1OC)-c1ccc(OC)c(=O)cc1[C@@H](NC(C)=O)CC2` [Colchicine], the fold induction at 50 µM turned out to be 1 in the assay on P. aeruginosa (read-out: AK-based Prestwick Library Screening Results, P. aeruginosa (increase in extracellular AK activity)); 1 in assay [1] (read-out: AK-based Prestwick Library Screening Results, S. aureus (increase in extracellular AK activity)); 1.2 in the assay with E. coli (read-out: AK-based Prestwick Library Screening Results, E. coli (increase in extracellular AK activity)); 1.1 in the assay on E. cloacae (read-out: AK-based Prestwick Library Screening Results, E. cloacae (increase in extracellular AK activity)); 1 in the assay with E. faecium (read-out: AK-based Prestwick Library Screening Results, E. faecium (increase in extracellular AK activity)); 1 in assay [2] (read-out: AK-based Prestwick Library Screening Results, A. baumannii (increase in extracellular AK activity)). Also, the fold induction at 50 µM in the assay on K. pneumoniae (read-out: AK-based Prestwick Library Screening Results, K. pneumoniae (increase in extracellular AK activity)) stood at 0.9.
Regarding `CCc1c(C)[nH]c2c1C(=O)C(CN1CCOCC1)CC2` (centres unmarked) [Molindone hydrochloride], the fold induction at 50 µM is 0.9 in the assay with P. aeruginosa (planktonic P. aeruginosa, 50 μM final drug concentration, positive cutoff 3-fold increase, read-out: AK-based Prestwick library screening result, P. aeruginosa (fold increase in extracellular AK activity)); 1.1 in assay [1] (planktonic S. aureus, 50 μM final drug concentration, positive cutoff 3-fold increase, read-out: AK-based Prestwick library screening result, S. aureus (fold increase in extracellular AK activity)); 1.1 in the assay on E. coli (planktonic E. coli, 50 μM final drug concentration, positive cutoff 3-fold increase, read-out: AK-based Prestwick library screening result, E. coli (fold increase in extracellular AK activity)); 1.7 in the assay on E. cloacae (planktonic E. cloacae, 50 μM final drug concentration, positive cutoff 3-fold increase, read-out: AK-based Prestwick library screening result, E. cloacae (fold increase in extracellular AK activity)); 1 in the assay on E. faecium (planktonic E. faecium, 50 μM final drug concentration, positive cutoff 3-fold increase, read-out: AK-based Prestwick library screening result, E. faecium (fold increase in extracellular AK activity)); 1.1 in assay [2] (planktonic A. baumannii, 50 μM final drug concentration, positive cutoff 3-fold increase, read-out: AK-based Prestwick library screening result, A. baumannii (fold increase in extracellular AK activity)). In addition, in the assay on K. pneumoniae (planktonic K. pneumoniae, 50 μM final drug concentration, positive cutoff 3-fold increase, read-out: AK-based Prestwick library screening result, K. pneumoniae (fold increase in extracellular AK activity)), the fold induction at 50 µM came to 1.
As to `O=C(O)CCCc1ccc(N(CCCl)CCCl)cc1` [Chlorambucil], the fold induction at 50 µM in the assay on P. aeruginosa (planktonic P. aeruginosa, 50 μM final drug concentration, […], read-out: AK-based Prestwick library screening result, P. aeruginosa (fold increase in extracellular AK activity)) amounted to 0.8; in assay [1] (planktonic S. aureus, 50 μM final drug concentration, […], read-out: AK-based Prestwick library screening result, S. aureus (fold increase in extracellular AK activity)), 0.8; with E. coli (planktonic E. coli, 50 μM final drug concentration, […], read-out: AK-based Prestwick library screening result, E. coli (fold increase in extracellular AK activity)), 0.9; with E. cloacae (planktonic E. cloacae, 50 μM final drug concentration, […], read-out: AK-based Prestwick library screening result, E. cloacae (fold increase in extracellular AK activity)), 1.2; in the assay with E. faecium (planktonic E. faecium, 50 μM final drug concentration, […], read-out: AK-based Prestwick library screening result, E. faecium (fold increase in extracellular AK activity)), 0.9; in assay [2] (planktonic A. baumannii, 50 μM final drug concentration, […], read-out: AK-based Prestwick library screening result, A. baumannii (fold increase in extracellular AK activity)), 0.9. The fold induction at 50 µM in the assay with K. pneumoniae (planktonic K. pneumoniae, 50 μM final drug concentration, […], read-out: AK-based Prestwick library screening result, K. pneumoniae (fold increase in extracellular AK activity)) worked out at 0.7.
As to `C=C1C/C(=C/C)C(=O)O[C@@H]2CCN3CC=C(COC(=O)[C@]1(C)O)[C@H]23` [Seneciphylline], the fold induction at 50 µM in the assay with P. aeruginosa (planktonic P. aeruginosa, 50 μM final drug concentration, […], read-out: AK-based Prestwick Library Screening Results, P. aeruginosa (increase in extracellular AK activity)) came to 0.8; in assay [1] (planktonic S. aureus, 50 μM final drug concentration, […], read-out: AK-based Prestwick Library Screening Results, S. aureus (increase in extracellular AK activity)), 0.8; in the assay with E. coli (planktonic E. coli, 50 μM final drug concentration, […], read-out: AK-based Prestwick Library Screening Results, E. coli (increase in extracellular AK activity)), 0.9; with E. cloacae (planktonic E. cloacae, 50 μM final drug concentration, […], read-out: AK-based Prestwick Library Screening Results, E. cloacae (increase in extracellular AK activity)), 1.2; in the assay on E. faecium (planktonic E. faecium, 50 μM final drug concentration, […], read-out: AK-based Prestwick Library Screening Results, E. faecium (increase in extracellular AK activity)), 0.9; in assay [2] (planktonic A. baumannii, 50 μM final drug concentration, […], read-out: AK-based Prestwick Library Screening Results, A. baumannii (increase in extracellular AK activity)) it was 0.8. In the assay on K. pneumoniae (planktonic K. pneumoniae, 50 μM final drug concentration, […], read-out: AK-based Prestwick Library Screening Results, K. pneumoniae (increase in extracellular AK activity)), the fold induction at 50 µM came to 0.7.
As for `COc1cc(NS(=O)(=O)c2ccc(N)cc2)ncn1` [Sulfamonomethoxine], the fold induction at 50 µM in the assay with P. aeruginosa (setting [3]) came out at 1; in assay [1] (setting [4]) it was 0.7; with E. coli (setting [5]), 0.9; in the assay with E. cloacae (setting [6]), 1.1; in the assay on E. faecium (setting [7]) it was 0.9; in assay [2] (setting [8]), 1.6. The fold induction at 50 µM with K. pneumoniae (setting [9]) came out at 0.8.
